# Patent publication US20140107054A1, “Method of treating clostridium difficile-associated diarrhea” (priority 2006, published 2014)
# Where “and” joins values, the source holds several entries; their conditions need not be identical. Identical values can stand only once.
# Experiments:
# C. difficile strains [1] = experiment: MIC, agar dilution, statements for C. difficile strains together; format: cell-based, Clostridium difficile
# From the text: (§1) Laboratory strains of Clostridium difficile 9689, 700057, 43255, 17857 and Eubacterium lentum 43055 were obtained from American Type Culture Collection (ATCC). […] Broth dilution is not a validated method for MIC testing of Clostridium; however, due to potential inaccuracy of measuring the pH of solid agar after equilibration inside the anaerobic chamber, both methods were used and compared for the assessment of pH effects. […] Even with strong buffering, the pH shifted slightly following equilibration in the anaerobic gas, and thus in some cases media was titered in ambient air to above the desired anaerobic pH. The actual pH was always confirmed following equilibration inside the anaerobic chamber. […] The level of divalent cations in the Brucella broth as acquired from the manufacturer were determined by the Laboratory Specialists, Inc.
# [2] = system: Eubacterium lentum (43055); experiment: MIC, CLSI agar dilution, different lots of media (QC organism); format: cell-based; conditions: Eggerthella lenta
# From the text: (§2) Laboratory strains of Clostridium difficile 9689, 700057, 43255, 17857 and Eubacterium lentum 43055 were obtained from American Type Culture Collection (ATCC). […] Broth dilution is not a validated method for MIC testing of Clostridium; however, due to potential inaccuracy of measuring the pH of solid agar after equilibration inside the anaerobic chamber, both methods were used and compared for the assessment of pH effects.
# [3] = Fold increase in MIC relative to tiacumicin B (API mixture profile table); format: cell-based
# C. difficile (43255) = experiment: MIC, CLSI agar dilution, different lots of media; format: cell-based, Clostridium difficile; conditions: for MIC: Clostridioides difficile
# From the text: as §2
# C. difficile (17857) = experiment: MIC, CLSI agar dilution, different lots of media; format: cell-based, Clostridium difficile; conditions: Clostridioides difficile
# From the text: as §2
# C. difficile ATCC 9689 [4] = experiment: MIC, CLSI agar dilution; format: cell-based, Clostridium difficile; conditions: for MIC: Clostridioides difficile, different lots of media
# From the text: as §1
# C. difficile strains [5] = experiment: MIC, broth microdilution, statements for both C. difficile strains; format: cell-based, Clostridium difficile; conditions: all three experiments
# C. difficile ATCC 700057 [6] = experiment: MIC, broth microdilution (pH effect); format: cell-based, Clostridium difficile; conditions: in µg/mL
# C. difficile = experiment: Quantitative stool cultures of Phase 2A patients, C. difficile counts; format: in vivo, human; conditions: all patients except one receiving 50 mg; 50, 100 or 200 mg twice daily for 10 days (vancomycin 125 mg qid)
# Bacteroides group = experiment: Quantitative stool cultures of Phase 2A patients, Bacteroides group counts; format: in vivo, human
# C. difficile ATCC 9689 [7] = experiment: MIC, broth microdilution (pH effect); format: cell-based, Clostridium difficile; conditions: in µg/mL
# C. difficile ATCC 700057 [8] = experiment: MIC, CLSI agar dilution; format: cell-based, Clostridium difficile
# From the text: as §1
# [9] = anaerobic pH 6.7, 10 mM NaH2PO4 pH 7.0 (air)
# [10] = anaerobic pH 6.8, 100 mM NaH2PO4 pH 7.0 (Air)
# [11] = anaerobic pH 7.2, 10 mM MOPS pH 8.0 (Air)
# [12] = anaerobic pH 7.5, 100 mM MOPS pH 8.0 (Air)
# [13] = anaerobic pH 7.6, 10 mM TAPS pH 9.0 (Air)
# [14] = anaerobic pH 8, 100 mM TAPS pH 9.0 (Air)
# [15] = anaerobic pH 8.1, 100 mM TAPS pH 9.5 (Air)
# [16] = strongly buffered series, anaerobic pH 6, pH 6.0 (Air)
# [17] = unbuffered media, anaerobic pH 5.9
# [18] = unbuffered media, anaerobic pH 6.6
# [19] = unbuffered media, anaerobic pH 7.1
# [20] = unbuffered media, anaerobic pH 7.5
# [21] = weakly buffered series, anaerobic pH 6, pH 6.0 (Air)
# [22] = anaerobic pH 7, 100 mM NaH2PO4, pH 7.2 (Air)
compound,measurement,setting,value
"Cc1ncc([N+](=O)[O-])n1CCO [Metronidazole, metronidazole]",MIC values range in our laboratory,C. difficile strains [1]; control vs. C. difficile strains,0.25 to 0.5 µg/mL
same,MIC,"[2]; 24 h, Day 1",1 µg/mL
same,MIC,"[2]; 48 h, Day 2",0.25 µg/mL
same,MIC,"[2]; 72 h, Day 3",1 µg/mL
CCc1c(Cl)c(O)c(Cl)c(O)c1C(=O)OC1C(C)OC(OC/C2=C\C=C\CC(O)/C(C)=C/C(CC)C(OC3OC(C)(C)C(OC(C)=O)C(O)C3O)/C(C)=C/C(C)=C/CC(C(C)O)OC2=O)C(OC)C1O (centres unmarked) [OP-1416],fold increased in MIC relative to tiacumicn B,[3],2-4x
"CCC1/C=C(\C)C(O)C/C=C/C=C(\COC2OC(C)C(OC(=O)c3c(C)c(Cl)c(O)c(Cl)c3O)C(O)C2OC)C(=O)CC(C(C)O)C/C=C(C)/C=C(\C)C1OC1OC(C)(C)C(OC(=O)C(C)C)C(O)C1O (centres unmarked) [OP-1405, lipiarmycin A4]",fold increased in MIC relative to tiacumicn B,[3],1-4x
"CCC[C@@H]1C[C@@H](C(=O)N[C@@H]([C@H]2O[C@H](SC)[C@H](O)[C@@H](O)[C@H]2O)[C@H](C)Cl)N(C)C1 [Clindamycin, clindamycin]",MIC,"[2]; 24 h, Day 1",0.25 µg/mL
same,MIC,"[2]; 48 h, Day 2",0.25 µg/mL
same,MIC,"[2]; 72 h, Day 3",0.125 µg/mL
same,MIC,"C. difficile (43255); 24 h, Day 1",8 µg/mL
same,MIC,"C. difficile (43255); 48 h, Day 2",4 µg/mL
same,MIC,"C. difficile (43255); 72 h, Day 3",8 µg/mL
same,MIC values,C. difficile (43255); Day 2,8 µg/mL
same,MIC,"C. difficile (17857); 24 h, Day 1",4 µg/mL
same,MIC,"C. difficile (17857); 48 h, Day 2",2 µg/mL
same,MIC,"C. difficile (17857); 72 h, Day 3",4 µg/mL
same,MIC,"C. difficile ATCC 9689 [4]; ATCC9689, 24 h, Day 1",4 µg/mL
same,MIC,"C. difficile ATCC 9689 [4]; ATCC9689, 48 h, Day 2",4 µg/mL
same,MIC,"C. difficile ATCC 9689 [4]; ATCC9689, 72 h, Day 3",4 µg/mL
"CCC1CC=C(C)C=C(C)C(OC2OC(C)(C)C(OC(C)=O)C(O)C2O)C(CC)C=C(C)C(O)CC=CC=C(C)C(=O)O1 (centres unmarked) [OP-1434, tiacumicin A]",fold increased in MIC relative to tiacumicn B,[3],>32x
"CCc1c(Cl)c(O)c(Cl)c(O)c1C(=O)OC1C(C)OC(OC/C2=C/C=C/CC(O)/C(C)=C/C(CC)C(OC3OC(C)(C)C(O)C(O)C3OC(=O)C(C)C)/C(C)=C/C(C)=C/CC(C(C)O)OC2=O)C(OC)C1O (centres unmarked) [OP-1432, tiacumicin C]",fold increased in MIC relative to tiacumicn B,[3],8-16x
CCC(=O)OC1C(O)C(O)C(OC2/C(C)=C/C(C)=C/CC(C(C)O)OC(=O)/C(COC3OC(C)C(OC(=O)c4c(O)c(Cl)c(O)c(Cl)c4CC)C(O)C3OC)=C/C=C/CC(O)/C(C)=C/C2CC)OC1(C)C (centres unmarked) [OP-1417],fold increased in MIC relative to tiacumicn B,[3],2-4x
"CN[C@H](CC(C)C)C(=O)N[C@H]1C(=O)N[C@@H](CC(N)=O)C(=O)N[C@H]2C(=O)N[C@H]3C(=O)N[C@H](C(=O)N[C@H](C(=O)O)c4cc(O)cc(O)c4-c4cc3ccc4O)[C@H](O)c3ccc(c(Cl)c3)Oc3cc2cc(c3O[C@@H]2O[C@H](CO)[C@@H](O)[C@H](O)[C@H]2O[C@H]2C[C@](C)(N)[C@H](O)[C@H](C)O2)Oc2ccc(cc2Cl)[C@H]1O [Vancomycin, vancomycin]",MIC at highest pH treatment relative to lowest pH treatment,C. difficile strains [5],4-8 fold
same,Effect of inoculum density on MIC,"C. difficile strains [1]; 10^5-10^8 cfu/ml (10^2-10^5 CFU/spot), ATCC 9689 and ATCC 700057, highest over lowest inoculum density",fourfold increase in MIC
same,MIC,C. difficile ATCC 700057 [6]; [9],1
same,MIC,C. difficile ATCC 700057 [6]; [10],2
same,MIC,C. difficile ATCC 700057 [6]; [11],2
same,MIC,C. difficile ATCC 700057 [6]; [12],4
same,MIC,C. difficile ATCC 700057 [6]; [13],4
same,MIC,C. difficile ATCC 700057 [6]; [14],8
same,MIC,C. difficile ATCC 700057 [6]; [15],8
same,MIC,C. difficile ATCC 700057 [6]; [16],1
same,MIC,C. difficile ATCC 700057 [6]; [17],0.5
same,MIC,C. difficile ATCC 700057 [6]; [18],1
same,MIC,C. difficile ATCC 700057 [6]; [19],1 and 2
same,MIC,C. difficile ATCC 700057 [6]; [20],2 and 4
same,MIC,C. difficile ATCC 700057 [6]; [21],0.5
same,C. difficile quantitative counts at day 10,C. difficile,similarly effective
same,Effect on Bacteroides counts during therapy,Bacteroides group; 125 mg qid for 10 days,severely impairs Bacteroides counts
same,"Bacteroides group counts/gm feces wet weight, mean ± SD","Bacteroides group; Day 0, 125 mg qid (n = 7)",7.39 ± 2.67 log10 CFU
same,MIC,C. difficile ATCC 9689 [7]; [9],1
same,MIC,C. difficile ATCC 9689 [7]; [10],1 and 2
same,MIC,C. difficile ATCC 9689 [7]; [11],2
same,MIC,C. difficile ATCC 9689 [7]; [12],4
same,MIC,C. difficile ATCC 9689 [7]; [13],4
same,MIC,C. difficile ATCC 9689 [7]; [14],>8
same,MIC,C. difficile ATCC 9689 [7]; [15],>8
same,MIC,C. difficile ATCC 9689 [7]; [16],1 and 0.5
same,MIC,C. difficile ATCC 9689 [7]; [17],0.5 and 1
same,MIC,C. difficile ATCC 9689 [7]; [18],0.5 and 1
same,MIC,C. difficile ATCC 9689 [7]; [19],2
same,MIC,C. difficile ATCC 9689 [7]; [20],4
same,MIC,C. difficile ATCC 9689 [7]; [21],0.5
same,In vitro activity (MIC),"C. difficile ATCC 700057 [8]; agar dilution, inoculum density 1.48 × 10^8 cfu/ml, 1.48 × 10^5",2 µg/mL
same,agar dilution MIC,C. difficile ATCC 700057 [8]; [22],4
same,agar dilution MIC,"C. difficile ATCC 700057 [8]; pH 6.7, unbuffered column",2 (pH 6.7)
same,agar dilution MIC,C. difficile ATCC 9689 [4]; [22],4
same,agar dilution MIC,"C. difficile ATCC 9689 [4]; pH 6.7, unbuffered column",1 (pH 6.7)
"CCc1c(Cl)c(O)c(Cl)c(O)c1C(=O)O[C@H]1[C@H](O)[C@H](OC)[C@H](OC/C2=C\C=C\C[C@H](O)/C(C)=C/[C@H](CC)[C@@H](O[C@@H]3OC(C)(C)[C@@H](OC(=O)C(C)C)[C@H](O)[C@@H]3O)/C(C)=C/C(C)=C/C[C@@H](C(C)O)OC2=O)O[C@@H]1C (some centres unmarked) [OP-1441, tiacumicin B]",fold increased in MIC relative to tiacumicn B,[3],1x
CCc1c(Cl)c(O)c(Cl)c(O)c1C(=O)OC1C(C)OC(OC/C2=C\C=C\CC(O)/C(C)=C/C(CC)C(OC3OC(C)(C)C(OC(=O)C(C)C)C(O)C3O)/C(C)=C/C(C)=C/CC(C(C)=O)OC2=O)C(OC)C1O (centres unmarked) [OP-1402],fold increased in MIC relative to tiacumicn B,[3],2-4x
CCc1c(Cl)c(O)c(Cl)c(O)c1C(=O)OC1C(C)OC(OC/C2=C\C=C\CC(O)/C(C)=C/C(CC)C(OC3OC(C)(C)C(OC(=O)CC(C)C)C(O)C3O)/C(C)=C/C(C)=C/CC(C(C)O)OC2=O)C(OC)C1O (centres unmarked) [OP-1437],fold increased in MIC relative to tiacumicn B,[3],2x
"CCc1c(Cl)c(O)c(Cl)c(O)c1C(=O)OC1C(C)OC(OC/C2=C/C=C/CC(O)/C(C)=C/C(CC)C(OC3OC(C)(C)C(O)C(OC(=O)C(C)C)C3O)/C(C)=C/C(C)=C/CC(C(C)O)OC2=O)C(OC)C1O (centres unmarked) [OP-1431, tiacumicin F]",fold increased in MIC relative to tiacumicn B,[3],8x
